Source: the supplement of paper PMC10307832

Tests used:
Assay in all cases: relative viability (nuclei count vs DMSO), 5 days (fraction); higher = more cells survive
EKVX = test system: EKVX
Method in brief: (§1)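 Lung cancer cell lines, seeded in 1536-well plates, were treated the following day by pin tool with a single drug or with five library-drug doses (not always all listed) in √10 steps on top of a fixed anchor-drug dose. Cells were fixed and nuclei stained in one step after 5 days, and nuclei were counted. Relative viability is the nuclei count for treated wells divided by that for vehicle wells, reported as medians of duplicate plates.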

NCI-H1993 = test system: NCI-H1993
Method in brief: as §1

NCI-H2085 = test system: NCI-H2085
Method in brief: as §1

IA-LM = test system: IA-LM
Method in brief: as §1

ABC-1 = test system: ABC-1
Method in brief: as §1

NCI-H1648 = test system: NCI-H1648
Method in brief: as §1

NCI-H2126 = test system: NCI-H2126
Method in brief: as §1

HCC-44 = test system: HCC-44
Method in brief: as §1

RERF-LC-KJ = test system: RERF-LC-KJ
Method in brief: as §1

O=c1cc(N2CCOCC2)oc2c(-c3cccc4c3sc3ccccc34)cccc12 + O=C(CCCCCCC(=O)Nc1ccccc1)NO [Vorinostat] (partner 1 µM)
relative viability (EKVX; first compound 0.01 µM): 0.723
relative viability (EKVX; first compound 0.03162 µM): 0.748
relative viability (EKVX; first compound 0.1 µM): 0.681
relative viability (EKVX; first compound 0.3162 µM): 0.753
relative viability (EKVX; first compound 1 µM): 0.736
relative viability (NCI-H1993; first compound 0.01 µM): 1.21
relative viability (NCI-H1993; first compound 0.03162 µM): 0.769
relative viability (NCI-H1993; first compound 0.1 µM): 0.94
relative viability (NCI-H1993; first compound 0.3162 µM): 0.851
relative viability (NCI-H1993; first compound 1 µM): 0.697
relative viability (NCI-H2085; first compound 0.01 µM): 0.779
relative viability (NCI-H2085; first compound 0.03162 µM): 0.783
relative viability (NCI-H2085; first compound 0.1 µM): 0.755
relative viability (NCI-H2085; first compound 0.3162 µM): 0.788
relative viability (NCI-H2085; first compound 1 µM): 0.753
relative viability (IA-LM; first compound 0.01 µM): 0.965
relative viability (IA-LM; first compound 0.03162 µM): 0.986
relative viability (IA-LM; first compound 0.1 µM): 0.907
relative viability (IA-LM; first compound 0.3162 µM): 0.901
relative viability (IA-LM; first compound 1 µM): 0.909
relative viability (ABC-1; first compound 0.01 µM): 1.36
relative viability (ABC-1; first compound 0.03162 µM): 1.58
relative viability (ABC-1; first compound 0.1 µM): 1.31
relative viability (ABC-1; first compound 0.3162 µM): 1.17
relative viability (ABC-1; first compound 1 µM): 1.02
relative viability (NCI-H1648; first compound 0.03162 µM): 0.577
relative viability (NCI-H1648; first compound 0.1 µM): 0.438
relative viability (NCI-H1648; first compound 0.3162 µM): 0.419
relative viability (NCI-H1648; first compound 1 µM): 0.689
relative viability (NCI-H2126; first compound 0.01 µM): 0.84
relative viability (NCI-H2126; first compound 0.03162 µM): 0.751
relative viability (NCI-H2126; first compound 0.1 µM): 0.668
relative viability (NCI-H2126; first compound 0.3162 µM): 0.734
relative viability (NCI-H2126; first compound 1 µM): 0.771
relative viability (HCC-44; first compound 0.01 µM): 1.05
relative viability (HCC-44; first compound 0.03162 µM): 1.05
relative viability (HCC-44; first compound 0.1 µM): 1.06
relative viability (HCC-44; first compound 0.3162 µM): 1.03
relative viability (HCC-44; first compound 1 µM): 1.07
relative viability (RERF-LC-KJ; first compound 0.01 µM): 0.76
relative viability (RERF-LC-KJ; first compound 0.03162 µM): 0.694
relative viability (RERF-LC-KJ; first compound 0.1 µM): 0.775
relative viability (RERF-LC-KJ; first compound 0.3162 µM): 0.64
relative viability (RERF-LC-KJ; first compound 1 µM): 0.707

CCN(CC)CCCCNc1ncc2cc(-c3cc(OC)cc(OC)c3)c(NC(=O)NC(C)(C)C)nc2n1 + O=C(CCCCCCC(=O)Nc1ccccc1)NO [Vorinostat] (partner 1 µM)
relative viability (EKVX; first compound 0.01 µM): 0.814
relative viability (EKVX; first compound 0.03162 µM): 0.734
relative viability (EKVX; first compound 0.1 µM): 0.731
relative viability (EKVX; first compound 0.3162 µM): 0.704
relative viability (EKVX; first compound 1 µM): 0.621
relative viability (NCI-H1993; first compound 0.01 µM): 0.776
relative viability (NCI-H1993; first compound 0.03162 µM): 0.726
relative viability (NCI-H1993; first compound 0.1 µM): 0.899
relative viability (NCI-H1993; first compound 0.3162 µM): 0.882
relative viability (NCI-H1993; first compound 1 µM): 0.695
relative viability (NCI-H2085; first compound 0.01 µM): 0.782
relative viability (NCI-H2085; first compound 0.03162 µM): 0.8
relative viability (NCI-H2085; first compound 0.1 µM): 0.935
relative viability (NCI-H2085; first compound 0.3162 µM): 0.858
relative viability (NCI-H2085; first compound 1 µM): 0.793
relative viability (IA-LM; first compound 0.01 µM): 0.963
relative viability (IA-LM; first compound 0.03162 µM): 0.836
relative viability (IA-LM; first compound 0.1 µM): 0.852
relative viability (IA-LM; first compound 0.3162 µM): 1.26
relative viability (IA-LM; first compound 1 µM): 0.979
relative viability (ABC-1; first compound 0.03162 µM): 0.99
relative viability (ABC-1; first compound 0.1 µM): 1.35
relative viability (ABC-1; first compound 0.3162 µM): 1.01
relative viability (ABC-1; first compound 1 µM): 1.09
relative viability (NCI-H1648; first compound 0.01 µM): 0.48
relative viability (NCI-H1648; first compound 0.03162 µM): 0.352
relative viability (NCI-H1648; first compound 0.1 µM): 0.666
relative viability (NCI-H1648; first compound 0.3162 µM): 0.602
relative viability (NCI-H1648; first compound 1 µM): 0.327
relative viability (NCI-H2126; first compound 0.01 µM): 0.771
relative viability (NCI-H2126; first compound 0.03162 µM): 0.834
relative viability (NCI-H2126; first compound 0.1 µM): 0.807
relative viability (NCI-H2126; first compound 0.3162 µM): 0.834
relative viability (NCI-H2126; first compound 1 µM): 0.822
relative viability (HCC-44; first compound 0.01 µM): 1.11
relative viability (HCC-44; first compound 0.03162 µM): 1.08
relative viability (HCC-44; first compound 0.1 µM): 1.16
relative viability (HCC-44; first compound 0.3162 µM): 1.08
relative viability (HCC-44; first compound 1 µM): 1.15
relative viability (RERF-LC-KJ; first compound 0.01 µM): 0.748
relative viability (RERF-LC-KJ; first compound 0.03162 µM): 0.71
relative viability (RERF-LC-KJ; first compound 0.1 µM): 0.764
relative viability (RERF-LC-KJ; first compound 0.3162 µM): 0.794
relative viability (RERF-LC-KJ; first compound 1 µM): 0.661
